These results are taken from the NIST ThermoML archive (doi:10.1016/j.fluid.2014.07.015).

The conditions of the data set: 101.33 kPa, Liquid, Vibrating tube method.

± gives the expanded uncertainty stated by the source.

`CCCCn1cc[n+](C)c1C.O=S(=O)([N-]S(=O)(=O)C(F)(F)F)C(F)(F)F`: the mass density by setting is: (278.15 K) 1437.39 ± 0.29 kg/m3; (283.15 K) 1432.61 ± 0.28 kg/m3; (288.15 K) 1427.91 ± 0.28 kg/m3; (293.15 K) 1423.31 ± 0.28 kg/m3; (298.15 K) 1418.69 ± 0.28 kg/m3; (303.15 K) 1414.07 ± 0.28 kg/m3. Moreover, the mass density (308.15 K) was 1409.46 ± 0.28 kg/m3; the mass density (313.15 K) amounted to 1404.86 ± 0.27 kg/m3; the mass density (318.15 K) stood at 1400.25 ± 0.27 kg/m3; the mass density (323.15 K) was found to be 1395.67 ± 0.27 kg/m3; the mass density (328.15 K) is given as 1391.1 ± 0.27 kg/m3; the mass density (333.15 K) worked out at 1386.54 ± 0.27 kg/m3. The mass density is reported as 1381.98 ± 0.27 kg/m3 (338.15 K), 1377.44 ± 0.27 kg/m3 (343.15 K), 1372.92 ± 0.26 kg/m3 (348.15 K) and 1368.39 ± 0.26 kg/m3 (353.15 K).
`CCCC[P+](C)(CCCC)CCCC.O=S(=O)([N-]S(=O)(=O)C(F)(F)F)C(F)(F)F`: the mass density is recorded as 1270.8 ± 1.4 kg/m3 (278.15 K); 1266.52 ± 1.4 kg/m3 (283.15 K); 1262.25 ± 1.4 kg/m3 (288.15 K); 1257.99 ± 1.4 kg/m3 (293.15 K); 1253.72 ± 1.4 kg/m3 (298.15 K); 1249.58 ± 1.4 kg/m3 (303.15 K). In addition, the mass density (308.15 K) is recorded as 1245.46 ± 1.4 kg/m3; the mass density (313.15 K) came to 1241.32 ± 1.4 kg/m3; the mass density (318.15 K) is given as 1237.2 ± 1.4 kg/m3; the mass density (323.15 K) came out at 1233.09 ± 1.4 kg/m3; the mass density (328.15 K) is 1228.98 ± 1.4 kg/m3; the mass density (333.15 K) is recorded as 1224.88 ± 1.3 kg/m3. In addition, the mass density runs as follows: (338.15 K) 1220.79 ± 1.3 kg/m3; (343.15 K) 1216.71 ± 1.3 kg/m3; (348.15 K) 1212.65 ± 1.3 kg/m3; (353.15 K) 1208.59 ± 1.3 kg/m3.
